According to PubChem BioAssay (NCI):
Where “and” joins values, the source holds several entries; their conditions need not be identical. Equal values may be shown once.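 Exposure lasted 48 hours, with cells grown in 96-well plates and compounds tested at five concentrations. At the GI50, growth is halved. Definition used: TGI = concentration required for complete inhibition of growth.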 Calls of active or inactive are those of the source. Rule as the data show it: active = GI50 below about 0.43 µM; inactive = the rest.

Columns and labels:
Assay in all cases: inhibition of tumour cell growth, NCI panel, 48 h
MCF7 breast = system: MCF7 breast
SR leukemia = system: SR leukemia
HL-60(TB) leukemia = system: HL-60(TB) leukemia
NCI-H460 lung = system: NCI-H460 lung
OVCAR-4 ovarian = system: OVCAR-4 ovarian
M14 melanoma = system: M14 melanoma
SF-539 CNS = system: SF-539 CNS
MDA-MB-231 breast = system: MDA-MB-231 breast
HCC-2998 colon = system: HCC-2998 colon

| SMILES | GI50 (MCF7 breast) | TGI (MCF7 breast) | GI50 (SR leukemia) | TGI (SR leukemia) | GI50 (HL-60(TB) leukemia) | TGI (HL-60(TB) leukemia) | GI50 (NCI-H460 lung) | TGI (NCI-H460 lung) | GI50 (OVCAR-4 ovarian) | TGI (OVCAR-4 ovarian) | GI50 (M14 melanoma) | TGI (M14 melanoma) | GI50 (SF-539 CNS) | TGI (SF-539 CNS) | GI50 (MDA-MB-231 breast) | TGI (MDA-MB-231 breast) | GI50 (HCC-2998 colon) | TGI (HCC-2998 colon) | outcome (MCF7 breast) |
| --- | --- | --- | --- | --- | --- | --- | --- | --- | --- | --- | --- | --- | --- | --- | --- | --- | --- | --- | --- |
| C/C(=N\NC(=O)c1sc(=S)n(C)c1N)c1cc2ccccc2o1 | 12.3 µM | 30.4 µM | 8.04 µM | 22 µM | 26 µM | > 100 µM | 5.89 µM | 24.1 µM | 17.9 µM | 64.2 µM | 14.7 µM | 40.5 µM | 12.9 µM | 25.9 µM | 4.86 µM | 16.5 µM | 11.8 µM | 27 µM | – |
| COC(=O)CCC(=O)C(=O)OC | – | – | 4360 µM | 41100 µM | 23600 µM | 61600 µM | 34100 µM | – | 65000 µM | – | 32300 µM | – | 24500 µM | – | 39500 µM | – | 25300 µM | 73000 µM | inactive |
| CCN(CC)CCOCC[C@H]1CC[C@H]2[C@@H]3[C@H](C)Cc4cc(OS(N)(=O)=O)ccc4[C@H]3CC[C@]12C | 0.219 µM | 2.28 µM | 0.329 µM | 1.42 µM | 1.64 µM | 3.87 µM | 1.23 µM | 2.56 µM | 0.806 µM | 2.29 µM | 1.26 µM | 2.59 µM | 0.654 µM | 1.87 µM | 1.5 µM | 3.03 µM | 1.63 µM | 3.23 µM | – |
| CCCCON(OC(=O)c1ccccc1)C(=O)c1ccccc1 | > 100 µM | > 100 µM | 30.3 µM | > 100 µM | 88.7 µM | > 100 µM | > 100 µM | > 100 µM | > 100 µM | > 100 µM | > 100 µM | > 100 µM | > 100 µM | > 100 µM | > 100 µM | > 100 µM | > 100 µM | > 100 µM | – |
| CC(C)[C@]12O[C@H]1[C@@H]1O[C@]13[C@]1(O[C@H]1C[C@H]1C4=C(CC[C@@]13C)C(=O)OC4)[C@@H]2O | < 0.01 µM | – | 0.00713 µM | 0.0488 µM | < 0.0111 µM | 0.0495 µM | < 0.01 µM | > 100 µM | 0.0174 µM | – | 0.0158 µM | 0.0312 µM and 0.0361 µM | 0.0146 µM | 0.026 µM and 0.0358 µM | 0.0168 µM | 0.116 µM | 0.0212 µM | 0.0912 µM and 0.761 µM | – |
| O=C[C@@H](CO)O[C@H](C=O)c1c[nH]c(=O)[nH]c1=O | – | 428 µM | – | 614 µM | – | 376 µM | – | 508 µM | – | 375 µM | – | 527 µM | – | 428 µM | – | 389 µM | – | 338 µM | – |
| CCc1nc(N)nc(N)c1-c1ccc(NCCN)c([N+](=O)[O-])c1 | – | > 78.3 µM | – | > 55.8 µM | – | > 100 µM | – | > 100 µM | – | > 100 µM | – | 75.5 µM | – | > 100 µM | – | > 100 µM | – | 50.7 µM | – |
| OC(c1cccc(-n2ccc(C(F)(F)F)n2)c1)c1cnccc1NC1CCCCCC1 (stereo not given) | 1.53 µM | 3.11 µM | 1.79 µM | 6.49 µM | 2.06 µM | 4.26 µM | 1.84 µM | 3.42 µM | 1.64 µM | 3.07 µM | 1.78 µM | 3.29 µM | 1.69 µM | 3.1 µM | 1.69 µM | 3.16 µM | 1.61 µM | 3.03 µM | – |
| COc1ccc2oc(=O)cc(C(c3ccc[nH]3)c3ccc[nH]3)c2c1 | 0.108 µM | 14.5 µM | – | 3.79 µM | < 0.0502 µM | – | 0.107 µM | 10.3 µM | 0.303 µM | 26.3 µM | 0.0837 µM | 0.191 µM | 0.0937 µM | 0.451 µM | 0.109 µM | 6.05 µM | 0.0973 µM | 2.15 µM | – |
| FC(F)(F)Oc1cccc(-c2cnc3ccc(-c4ccncc4)nn23)c1 | 1.56 µM | 6.12 µM | 0.744 µM | 11.8 µM | 1.82 µM | 4.29 µM | 0.996 µM | > 100 µM | 1.4 µM | 11.3 µM | 0.769 µM | > 100 µM | 1.13 µM | 7.4 µM | 3.18 µM | > 100 µM | 4.47 µM | > 100 µM | – |
| Clc1ccc(CSC(Cn2ccnc2)c2ccc(Cl)cc2Cl)cc1 (stereo not given) | 1.6 µM | 2.99 µM | 2.3 µM | 5.8 µM | 2.15 µM | 4.54 µM | 1.47 µM | 2.78 µM | 1.37 µM | 3.16 µM | 1.69 µM | 3.12 µM | 1.73 µM | 3.36 µM | 1.51 µM | 2.98 µM | 1.64 µM | 3.12 µM | – |
| CN(C)CCOc1ccc(-c2nc(-c3ccc4c(c3)CC/C4=N\O)c(-c3ccncc3)[nH]2)cc1 | 4.52 µM and 3.55 µM | 9.03 µM and 16.1 µM | 5.48 µM and 3.64 µM | 16.6 µM and 14.5 µM | 2.83 µM and 2.45 µM | 7.44 µM and 14.5 µM | 4.14 µM and 4.55 µM | 8.24 µM and 17.2 µM | 4.72 µM and 6.69 µM | 9.74 µM and 37.8 µM | 0.0258 µM and 0.054 µM | 2.14 µM and 3.69 µM | 4.74 µM and 4.07 µM | 9.3 µM and 7.77 µM | 3.27 µM and 1.63 µM | 7.26 µM and 4.88 µM | 4.74 µM and 8.01 µM | 8.89 µM and > 27.8 µM | – |
| CC[C@]12CCCN3CCc4c(n(c5ccccc45)C(=O)C1)[C@@H]32 | – | > 100 µM | – | 18 µM | – | 8.51 µM | – | > 100 µM | – | > 76.3 µM | – | > 65.5 µM | – | > 51.9 µM | – | > 86.3 µM | – | 19.4 µM | – |
| COC(=O)[C@@]12C(=O)C=CC(=O)[C@@H]1C1C(=CC2COC(C)=O)O[C@@H]2OC3(CCCCC3)O[C@H]12 (stereo not given in full) | – | 32.3 µM | – | > 100 µM | – | > 25.6 µM | – | 32.9 µM | – | 19.7 µM | – | 30.1 µM | – | 24.7 µM | – | 39.9 µM | – | 30.4 µM | – |
| COc1cccc2c1C(=O)C=CC2=O | – | 4.82 µM | – | 1.02 µM | – | 1.09 µM | – | 32.6 µM | – | 3.77 µM | – | 20.7 µM | – | 30.1 µM | – | 4.76 µM | – | 29.3 µM | – |
